The target in this test is T1, human glucagon receptor (Homo sapiens, UniProt P47871).
T1 construct: expressed in transfected cells; host or cells: BHK (baby hamster kidney) cells
The experiment in a line: Glucagon Binding Assay (III). The following applies: BHK cell membranes, WGA SPA beads, 125I-glucagon; read-out: Glu Bd Assay (III) IC50. The method in brief: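 Non-specific binding was set with 500 nM glucagon in this SPA-type binding assay using WGA beads. The receptor source was a membrane preparation, kept on ice or at 4 °C, from BHK cells transfected with the human receptor. Scintillation counts were taken after 4 hours of shaking and 8–48 hours of settling.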

In general, IC50 refers to the midpoint of a concentration-inhibition curve.

T1 sequence (P47871 26-477): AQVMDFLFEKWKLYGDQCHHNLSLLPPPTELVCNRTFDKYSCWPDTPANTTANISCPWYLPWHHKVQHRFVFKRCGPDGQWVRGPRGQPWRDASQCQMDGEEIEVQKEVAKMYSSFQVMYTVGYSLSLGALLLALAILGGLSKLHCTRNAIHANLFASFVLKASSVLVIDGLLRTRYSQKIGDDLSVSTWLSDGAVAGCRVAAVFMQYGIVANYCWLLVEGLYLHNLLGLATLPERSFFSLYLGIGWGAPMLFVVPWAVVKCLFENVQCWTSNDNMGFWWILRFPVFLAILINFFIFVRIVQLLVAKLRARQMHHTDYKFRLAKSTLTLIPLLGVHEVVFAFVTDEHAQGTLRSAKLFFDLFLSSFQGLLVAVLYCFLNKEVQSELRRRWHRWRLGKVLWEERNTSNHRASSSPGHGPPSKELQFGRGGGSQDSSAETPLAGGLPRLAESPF

For the molecule `CS(=O)(=O)c1ccc2nc(NC(=O)N(Cc3ccc(C(=O)Nc4nn[nH]n4)cc3)c3ccc(C4CCCCC4)cc3)sc2c1` [Example 616, 4-[1-(4-Cyclohexylphenyl)-3-(6-methylsulfonylbenzothiazol-2-yl)ureidomethyl]-N-(2H-tetrazol-5-yl)benzamide], the IC50 is 745 nM.
`O=C(Nc1nn[nH]n1)c1ccc(CN(C(=O)Nc2nc3cc4c(cc3s2)OC(F)(F)C(F)(F)O4)c2ccc(C3CCCCC3)cc2)cc1` [Example 617]: the IC50 is 104 nM.
As to `O=C(O)CCNC(=O)c1ccc(CN(C(=O)c2cc(F)cc(C(F)(F)F)c2)C2CCC3(CCCCC3)CC2)cc1` [Example 618, 3-(4-{[(3-Fluoro-5-trifluoromethylbenzoyl)spiro[5.5]undec-3-yl-amino]methyl}benzoylamino)propionic acid], the IC50 worked out at 1070 nM.
Then `O=C(O)CCNC(=O)c1ccc(CN(C(=O)c2cc3ccccc3s2)C2CCC3(CCCCC3)CC2)cc1` [Example 619, 3-(4-{[(Benzo[b]thiophene-2-carbonyl)spiro[5.5]undec-3-yl-amino]methyl}benzoylamino)propionic acid], with 479 nM.
Regarding `CS(=O)(=O)c1cccc(NC(=O)N(Cc2ccc(C(=O)Nc3nn[nH]n3)cc2)C2CCC3(CCCCC3)CC2)c1` [Example 620, 4-[3-(3-Methylsulfonylphenyl)-1-spiro[5.5]undec-3-ylureidomethyl]-N-(2H-tetrazol-5-yl)benzamide], the IC50 is 542 nM.
Take `CS(=O)(=O)c1ccc(OC(=O)N(Cc2ccc(C(=O)NCCC(=O)O)cc2)c2ccc(C3CCCCC3)cc2)cc1` [Example 621, 3-(4-{[(4-Cyclohexylphenyl)-(4-(methylsulfonyl)phenoxycarbonyl)amino]methyl}benzoylamino)propionic acid]: the half-maximal inhibitory concentration (IC50) is 4600 nM.
For `CS(=O)(=O)c1ccc(OC(=O)N(Cc2ccc(C(=O)Nc3nn[nH]n3)cc2)c2ccc(C3CCCCC3)cc2)cc1` [Example 622], the IC50 turned out to be 4600 nM.
Regarding `CC(C)(C)C1CCC(N(Cc2ccc(C(=O)Nc3nn[nH]n3)cc2)C(=O)Oc2ccc(S(C)(=O)=O)cc2)CC1` (stereo not drawn) [Example 623], the half-maximal inhibitory concentration (IC50) worked out at 2700 nM.
Then `CC(C)(C)c1ccc(N(Cc2ccc(C(=O)Nc3nn[nH]n3)cc2)C(=O)Oc2ccc(S(C)(=O)=O)cc2)cc1` [Example 624], with 2000 nM; and `CCCCN1C(=O)c2ccc(NC(=O)N(Cc3ccc(C(=O)Nc4nn[nH]n4)cc3)c3ccc(C4=CCCCC4)cc3)cc2C1=O` [Example 625, 4-[3-(N′-Butylphthalimid-4-yl)-1-(4-cyclohex-1-enylphenyl)ureidomethyl]-N-(2H-tetrazol-5-yl)benzamide], with 7 nM; and `CCCCN1C(=O)c2ccc(NC(=O)N(Cc3ccc(C(=O)NCCC(=O)O)cc3)c3ccc(C(C)(C)C)cc3)cc2C1=O` [Example 626, 3-{4-[3-(N′-Butylphthalimid-4-yl)-1-(4-tert-butylphenyl)ureidomethyl]benzoylamino}propionic acid], with 38 nM.
Then `CC(C)N1C(=O)c2ccc(NC(=O)N(Cc3ccc(C(=O)Nc4nn[nH]n4)cc3)c3ccc(C4CCCCC4)cc3)cc2C1=O` [Example 627, 4-[1-(4-Cyclohexylphenyl)-3-(N-isopropylphthalimid-4-yl)ureidomethyl]-N-(2H-tetrazol-5-yl)benzamide], with 8 nM; and `CC(C)N1C(=O)c2ccc(NC(=O)N(Cc3ccc(C(=O)Nc4nn[nH]n4)cc3)c3ccc(C(C)(C)C)cc3)cc2C1=O` [Example 628, 4-[1-(4-tert-Butyl-phenyl)-3-(N′-isopropylphthalimid-4-yl)ureidomethyl]-N-(2H-tetrazol-5-yl)benzamide], with 35 nM; and `CC(C)N1C(=O)c2ccc(NC(=O)N(Cc3ccc(C(=O)Nc4nn[nH]n4)cc3)C3CCC(C(C)(C)C)CC3)cc2C1=O` (stereo not drawn) [Example 629, 4-[1-(4-tert-Butylcyclohexyl)-3-(N′-isopropylphthalimid-5-yl)ureidomethyl]-N-(2H-tetrazol-5-yl)benzamide], with 45 nM.
On to `CC(C)N1C(=O)c2ccc(NC(=O)N(Cc3ccc(C(=O)NCCC(=O)O)cc3)c3ccc(C(C)(C)C)cc3)cc2C1=O` [Example 630, 3-{4-[1-(4-tert-Butylphenyl)-3-(N′-isopropylphthalimid-4-yl)ureidomethyl]benzoylamino}propionic acid], for which the IC50 was determined as 73 nM.
On to `CC(C)N1C(=O)c2ccc(NC(=O)N(Cc3ccc(C(=O)NCCC(=O)O)cc3)c3ccc(C4CCCCC4)cc3)cc2C1=O` [Example 631, 3-{4-[1-(4-Cyclohexyl-phenyl)-3-(N′-isopropylphthalimid-4-yl)ureidomethyl]benzoylamino}propionic acid], for which the IC50 amounted to 23 nM.
Take `CC(C)N1C(=O)c2ccc(NC(=O)N(Cc3ccc(C(=O)NCCC(=O)O)cc3)C3CCC(C(C)(C)C)CC3)cc2C1=O` (stereo not drawn) [Example 632, 3-{4-[1-(4-tert-Butylcyclohexyl)-3-(N′-isopropylphthalimid-4-yl)ureidomethyl]benzoylamino}propionic acid]: the half-maximal inhibitory concentration (IC50) came to 91 nM.
Then `CCCCN1C(=O)c2ccc(NC(=O)N(Cc3ccc(C(=O)Nc4nn[nH]n4)cc3)C3CCC(C(C)(C)C)CC3)cc2C1=O` (stereo not drawn) [Example 633, 4-[1-(4-tert-Butylcyclohexyl)-3-(N′-butylphthalimid-4-yl)ureidomethyl]-N-(2H-tetrazol-5-yl)benzamide], with 19 nM; and `CCCCN1C(=O)c2ccc(NC(=O)N(Cc3ccc(C(=O)NCCC(=O)O)cc3)c3ccc(C4CCCCC4)cc3)cc2C1=O` [Example 635, 3-{4-[3-(N′-Butylphthalimid-4-yl)-1-(4-cyclohexylphenyl)ureidomethyl]benzoylamino}propionic acid], with 18 nM.
Consider `CCCCN1C(=O)c2ccc(NC(=O)N(Cc3ccc(C(=O)Nc4nn[nH]n4)cc3)c3ccc(C4CCCCC4)cc3)cc2C1=O` [Example 636, 4-[3-(N′-Butylphthalimid-4-yl)-1-(4-cyclohexylphenyl)ureidomethyl]-N-(2H-tetrazol-5-yl)benzamide], for which the IC50 came out at 5 nM.
Then `CCCCN1C(=O)c2ccc(NC(=O)N(Cc3ccc(C(=O)NCCC(=O)O)cc3)C3CCC(C(C)(C)C)CC3)cc2C1=O` (stereo not drawn) [Example 637, 3-{4-[1-(4-tert-Butylcyclohexyl)-3-(N′-butylphthalimid-4-yl)ureidomethyl]benzoylamino}propionic acid], with 116 nM.
Then `O=C(Nc1nn[nH]n1)c1ccc(CN(C(=O)Nc2ccc3c(c2)C(=O)N(CC2CC2)C3=O)c2ccc(C3CCCCC3)cc2)cc1` [Example 639, 4-[1-(4-Cyclohexylphenyl)-3-(N′-[cyclopropylmethyl]phthalimid-4-yl)ureidomethyl]-N-(2H-tetrazol-5-yl)benzamide], with 4 nM.
For the molecule `CC(C)(C)c1ccc(N(Cc2ccc(C(=O)Nc3nn[nH]n3)cc2)C(=O)Nc2ccc3c(c2)C(=O)N(CC2CC2)C3=O)cc1` [Example 640, 4-[1-(4-tert-Butylphenyl)-3-(N′-[cyclopropylmethyl]phthalimid-4-yl)ureidomethyl]-N-(2H-tetrazol-5-yl)benzamide], the IC50 was determined as 6 nM.
Consider `CC(C)(C)C1CCC(N(Cc2ccc(C(=O)NCCC(=O)O)cc2)C(=O)Nc2ccc3c(c2)C(=O)N(CC2CC2)C3=O)CC1` (stereo not drawn) [Example 641, 3-{4-[1-(4-tert-Butylcyclohexyl)-3-(N′-[cyclopropylmethyl]phthalimid-4-yl)ureidomethyl]benzoylamino}propionic acid], for which the 50% inhibitory concentration (IC50) is 21 nM.
On to `O=C(O)CCNC(=O)c1ccc(CN(C(=O)Nc2ccc3c(c2)C(=O)N(CC2CC2)C3=O)c2ccc(C3CCCCC3)cc2)cc1` [Example 642, 3-{4-[3-(N′-[Cyclopropylmethyl]phthalimid-4-yl)-1-(4-cyclohexylphenyl)ureidomethyl]benzoylamino}propionic acid], for which the IC50 was found to be 7 nM.
`CC(C)(C)c1ccc(N(Cc2ccc(C(=O)NCCC(=O)O)cc2)C(=O)Nc2ccc3c(c2)C(=O)N(CC2CC2)C3=O)cc1` [Example 643, 3-{4-[3-(N′-[Cyclopropylmethyl]phthalimid-4-yl)-1-(4-tert-butylphenyl)ureidomethyl]benzoylamino}propionic acid]: the IC50 was determined as 38 nM.
`O=C(Nc1nn[nH]n1)c1ccc(CN(C(=O)Nc2ccc3c(c2)C(=O)N(CC2CC2)C3=O)c2ccc(C3=CCCCC3)cc2)cc1` [Example 644, 4-[3-(N′-[Cyclopropylmethyl]phthalimid-4-yl)-1-(4-cyclohex-1-enylphenyl)ureidomethyl]-N-(2H-tetrazol-5-yl)benzamide]: the IC50 was 4 nM.
As to `O=C(O)CCNC(=O)c1ccc(CN(C(=O)Nc2ccc3c(c2)C(=O)N(CC2CC2)C3=O)c2ccc(C3=CCCCC3)cc2)cc1` [Example 645, 3-{4-[1-(4-Cyclohex-1-enylphenyl)-3-(N′-[cyclopropylmethyl]phthalimid-4-yl)ureidomethyl]benzoylamino}propionic acid], the IC50 was 7 nM.
Regarding `CC(c1ccc(C(=O)Nc2nn[nH]n2)cc1)N(C(=O)Nc1ccc(OC(F)(F)F)cc1)c1ccc(C(C)(C)C)cc1` (stereo not drawn) [Example 646, 4-{1-[1-(4-tert-Butylphenyl)-3-(4-trifluoromethoxyphenyl)ureido]ethyl}-N-(2H-tetrazol-5-yl)benzamide], the IC50 amounted to 22 nM.
As for “(4-tert-Butylcyclohexyl)-3-(N′-[cyclopropylmethyl]phthalimid-4-yl)ureidomethyl]-N-(2H-tetrazol-5-yl)benzamide [Example 638]”, the IC50 is 11 nM.

(Values after US6875760B2 (Novo Nordisk A/S, priority 1999, dated 2005).)
